By IC50 is commonly meant the concentration that inhibits the measured activity by half. Low readings indicate inhibition by little substance, high ones a need for much substance.

Each structure is given as a SMILES string.

The target in the assay is Protein cereblon (Homo sapiens, UniProt Q96SW2). The assay can be described thus: Fluorescent Polarization Assay. As to the method: Compound activity was monitored in a fluorescence polarization (FP) homogeneous assay using 1-[5-({2-[2-(2-{[2-(2,6-dioxopiperidin-3-yl)-1,3-dioxo-2,3-dihydro-1H-isoindol-4-yl]oxy}acetamido)ethoxy]ethyl}carbamoyl)pentyl]-3,3-dimethyl-2-[(1E,3E)-5-[(2E)-1,3,3-trimethyl-5-sulfo-2,3-dihydro-1H-indol-2-ylidene]penta-1,3-dien-1-yl]-3H-indol-1-ium-5-sulfonate as a fluorescent probe. Unless otherwise stated, all reagents were purchased from Sigma Aldrich. Enzymatic reactions were conducted in Perkin-Elmer Black 384 well ProxiPlate Plus (catalogue no. 6008269) in 10 sL total volume. Full length wild-type cereblon CRBN (80.0 nM, 10 sL) was incubated in assay buffer containing 20 mM HEPES (pH 8.0), […], 0.5 mM TCEP and 0.05% Tween 20 in the presence or absence of compound (300 nL). Inhibitors were stored as 10 mM DMSO stocks in an inert environment (low humidity, dark, low oxygen, room temperature) using the Storage Pod System. Compounds and DMSO were dispensed using the Echo E5XX (Labcyte Inc. USA) to give concentrations from 300 to 0.937 or 3000 to 9.3 nM in a 12 data point curve. […] Following incubation at room temperature for 30 min, the assay was initiated by dispensing the probe to a final concentration of 5 nM (2.5 nL of a 20 μM stock) using the Echo E5XX. FP was measured after a period of 12 hours using a Pherastar plate reader (BMG Labtech, Germany) exciting at 590 nm and measuring the amount of parallel and perpendicular light at 675 nm. The FP signal was subsequently normalized to the no-compound control (i.e., DMSO). Analysis and IC50 values were derived using Dotmatics (Dotmatics UK) software.
Chain of Protein cereblon (Q96SW2 whole entry): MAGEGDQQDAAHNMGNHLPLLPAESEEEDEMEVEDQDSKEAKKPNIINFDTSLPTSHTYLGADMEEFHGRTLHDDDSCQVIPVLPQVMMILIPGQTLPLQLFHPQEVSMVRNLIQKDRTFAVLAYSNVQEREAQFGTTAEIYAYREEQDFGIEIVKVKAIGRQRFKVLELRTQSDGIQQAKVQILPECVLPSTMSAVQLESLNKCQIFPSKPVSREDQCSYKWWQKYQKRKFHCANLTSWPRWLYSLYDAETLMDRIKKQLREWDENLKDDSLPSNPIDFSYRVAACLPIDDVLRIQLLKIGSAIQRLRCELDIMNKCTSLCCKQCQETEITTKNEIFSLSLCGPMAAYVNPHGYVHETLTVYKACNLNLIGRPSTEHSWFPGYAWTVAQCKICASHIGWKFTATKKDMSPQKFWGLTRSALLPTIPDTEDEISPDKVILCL
For the molecule `CC(C)(C)c1ccc(NC(=O)OCc2cc(F)c3c(c2)C(=O)N(C2CCC(=O)NC2=O)C3)cc1` (centres undefined) [US20240051936, Compound 10], the IC50 is > 1.9 µM. The figure for `O=C1CCC(N2Cc3c(F)cc(COC(=O)Nc4ccc(F)c(OC(F)(F)F)c4)cc3C2=O)C(=O)N1` (centres undefined) [US20240051936, Compound 14] is > 1.9 µM; for `O=C1CCC(N2Cc3c(F)cc(COC(=O)Nc4ccc(C5CCC5)cc4)cc3C2=O)C(=O)N1` (centres undefined) [US20240051936, Compound 22] it is > 1.9 µM. In the case of `O=C1CCC(N2Cc3c(F)cc(COC(=O)Nc4ccc(-c5ccccc5F)c(F)c4)cc3C2=O)C(=O)N1` (centres undefined) [US20240051936, Compound 29] it was > 1.9 µM; in that of `O=C1CCC(N2Cc3c(F)cc(COC(=O)Nc4cc(F)c(-c5ccccc5)c(F)c4)cc3C2=O)C(=O)N1` (centres undefined) [US20240051936, Compound 30], > 1.9 µM.

Take `O=C1CCC(N2Cc3c(F)cc(COC(=O)Nc4ccc(F)c(Cl)c4)cc3C2=O)C(=O)N1` (centres undefined) [US20240051936, Compound 32]: the half-maximal inhibitory concentration (IC50) was > 1.9 µM. In the case of `O=C1CCC(N2Cc3c(F)cc(COC(=O)Nc4cc(F)cc(Cl)c4)cc3C2=O)C(=O)N1` (centres undefined) [US20240051936, Compound 33] it was > 1.9 µM. In the case of `O=C1CCC(N2Cc3c(F)cc(COC(=O)Nc4cc(F)c(F)c(Cl)c4)cc3C2=O)C(=O)N1` (centres undefined) [US20240051936, Compound 61] it was > 1.9 µM. In the case of `COc1c(COC(=O)Nc2ccc(C)c(Cl)c2)ccc2c1C(=O)N(C1CCC(=O)NC1=O)C2` (centres undefined) [US20240051936, Compound 70] it was > 1.9 µM.
